According to PubChem BioAssay AID1963845 (Molecular Pharmacology Branch, DTP, NCI, 2024):

Test system: 429239-143-T-J1-PDC complex spheroid viability
Assay: Anticancer human tumor 429239-143-T-J1-PDC patient-derived small cell lung carcinoma cell line growth inhibition [POLQ]
Details: for IC50: curve of first compound; for viability, T/C: stronger effect = lower value
Procedure, shortened: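 Growth inhibition in 3D: complex spheroids (tumor PDC, HUVEC, MSC) treated with POLQ inhibitor combinations; where Cmax unknown, highest tested concentration 10 microM, except SN-38 at 1 microM.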
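Note: luminescence signal used as surrogate measure of viable cells; spheroids exposed to compounds for seven days before readout.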
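Throughout, for viability, T/C: 100% = DMSO vehicle control viability as luminescence relative to vehicle.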

## CC(=O)O[C@H]1C(=O)[C@@]2(C)[C@H]([C@H](OC(=O)c3ccccc3)[C@]3(O)C[C@H](OC(=O)[C@H](O)[C@@H](NC(=O)c4ccccc4)c4ccccc4)C(C)=C1C3(C)C)[C@]1(OC(C)=O)CO[C@@H]1C[C@@H]2O + COC1C(OC(N)=O)C(O)C(Oc2ccc3c(O)c(NC(=O)c4ccc(O)c(CC=C(C)C)c4)c(=O)oc3c2C)OC1(C)C
Second compound 0.0316 µM
  IC50: < 9.49 nM
Second compound 0.1 µM
  IC50: < 9.49 nM
Second compound 0.316 µM
  IC50: < 9.49 nM
Second compound 1 µM
  IC50: < 9.49 nM
Second compound 3.16 µM
  IC50: < 9.49 nM
Second compound 10 µM
  IC50: < 9.49 nM
Second compound 0.0316 µM, first compound 0.00949 µM
  viability, T/C: 12.5%
Second compound 0.0316 µM, first compound 0.03 µM
  viability, T/C: 12.8%
Second compound 0.0316 µM, first compound 0.0949 µM
  viability, T/C: 10.9%
Second compound 0.0316 µM, first compound 0.3 µM
  viability, T/C: 13.6%
Second compound 0.0316 µM, first compound 0.949 µM
  viability, T/C: 11.8%
Second compound 0.0316 µM, first compound 3 µM
  viability, T/C: 13.3%
Second compound 0.1 µM, first compound 0.00949 µM
  viability, T/C: 14.8%
Second compound 0.1 µM, first compound 0.03 µM
  viability, T/C: 13.2%
Second compound 0.1 µM, first compound 0.0949 µM
  viability, T/C: 13.4%
Second compound 0.1 µM, first compound 0.3 µM
  viability, T/C: 11.5%
Second compound 0.1 µM, first compound 0.949 µM
  viability, T/C: 12.4%
Second compound 0.1 µM, first compound 3 µM
  viability, T/C: 14.3%
Second compound 0.316 µM, first compound 0.00949 µM
  viability, T/C: 13.8%
Second compound 0.316 µM, first compound 0.03 µM
  viability, T/C: 11.2%
Second compound 0.316 µM, first compound 0.0949 µM
  viability, T/C: 11.2%
Second compound 0.316 µM, first compound 0.3 µM
  viability, T/C: 11.3%
Second compound 0.316 µM, first compound 0.949 µM
  viability, T/C: 12.4%
Second compound 0.316 µM, first compound 3 µM
  viability, T/C: 12.2%
Second compound 1 µM, first compound 0.00949 µM
  viability, T/C: 12.5%
Second compound 1 µM, first compound 0.03 µM
  viability, T/C: 12.4%
Second compound 1 µM, first compound 0.0949 µM
  viability, T/C: 12.6%
Second compound 1 µM, first compound 0.3 µM
  viability, T/C: 11.6%
Second compound 1 µM, first compound 0.949 µM
  viability, T/C: 14.2%
Second compound 1 µM, first compound 3 µM
  viability, T/C: 13.9%
Second compound 3.16 µM, first compound 0.00949 µM
  viability, T/C: 15.9%
Second compound 3.16 µM, first compound 0.03 µM
  viability, T/C: 12.6%
Second compound 3.16 µM, first compound 0.0949 µM
  viability, T/C: 12%
Second compound 3.16 µM, first compound 0.3 µM
  viability, T/C: 11.3%
Second compound 3.16 µM, first compound 0.949 µM
  viability, T/C: 15.8%
Second compound 3.16 µM, first compound 3 µM
  viability, T/C: 13.8%
Second compound 10 µM, first compound 0.00949 µM
  viability, T/C: 14.8%
Second compound 10 µM, first compound 0.03 µM
  viability, T/C: 12.8%
Second compound 10 µM, first compound 0.0949 µM
  viability, T/C: 12.1%
Second compound 10 µM, first compound 0.3 µM
  viability, T/C: 12.8%
Second compound 10 µM, first compound 0.949 µM
  viability, T/C: 12.6%
Second compound 10 µM, first compound 3 µM
  viability, T/C: 13.3%
